Test results reported in ChEMBL document CHEMBL1743341, “Cytochrome p450 enzymes mechanism based inhibitors: common sub-structures and reactivity” (Curr Drug Metab, 2005).

Assays:
Type in all cases: ADME
Cytochrome P450 3A5 = Cytochrome P450 3A5 (Homo sapiens, UniProt P20815); test: Mechanism based inhibition of human cytochrome P450 3A5
Cytochrome P450 1A2 [1] = target: T1, Cytochrome P450 1A2 (Homo sapiens, UniProt P05177); test: (§1) Mechanism based inhibition of human cytochrome P450 1A2 measured by phenacetin O-deethylation (POD)
T1 sequence (P05177 whole entry): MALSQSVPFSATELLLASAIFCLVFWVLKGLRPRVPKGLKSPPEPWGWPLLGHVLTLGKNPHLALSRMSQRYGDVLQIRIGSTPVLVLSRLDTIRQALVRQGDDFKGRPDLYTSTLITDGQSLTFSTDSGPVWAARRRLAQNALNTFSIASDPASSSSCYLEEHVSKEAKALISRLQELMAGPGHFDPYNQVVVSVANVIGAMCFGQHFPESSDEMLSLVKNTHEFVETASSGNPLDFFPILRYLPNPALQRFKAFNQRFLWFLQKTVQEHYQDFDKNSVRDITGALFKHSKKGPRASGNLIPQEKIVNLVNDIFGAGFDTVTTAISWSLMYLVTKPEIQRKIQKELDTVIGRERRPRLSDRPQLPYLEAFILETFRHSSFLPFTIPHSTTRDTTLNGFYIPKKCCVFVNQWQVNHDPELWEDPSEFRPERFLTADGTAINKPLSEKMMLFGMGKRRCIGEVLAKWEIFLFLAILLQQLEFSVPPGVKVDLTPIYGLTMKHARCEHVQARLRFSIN

CYP1A2 = target: T2, CYP1A2 (Homo sapiens, UniProt P05177); test: as §1; conditions: human, probe phenacetin (O-deethylation, POD)
T2 sequence (P05177 whole entry): T1 sequence (P05177 whole entry)

Cytochrome P450 2C9 = Cytochrome P450 2C9 (Homo sapiens, UniProt P11712); test: Mechanism based inhibition of human cytochrome P450 2C9 measured by diclofenac 4-hydroxylation
Sequence of Cytochrome P450 2C9 (P11712 whole entry): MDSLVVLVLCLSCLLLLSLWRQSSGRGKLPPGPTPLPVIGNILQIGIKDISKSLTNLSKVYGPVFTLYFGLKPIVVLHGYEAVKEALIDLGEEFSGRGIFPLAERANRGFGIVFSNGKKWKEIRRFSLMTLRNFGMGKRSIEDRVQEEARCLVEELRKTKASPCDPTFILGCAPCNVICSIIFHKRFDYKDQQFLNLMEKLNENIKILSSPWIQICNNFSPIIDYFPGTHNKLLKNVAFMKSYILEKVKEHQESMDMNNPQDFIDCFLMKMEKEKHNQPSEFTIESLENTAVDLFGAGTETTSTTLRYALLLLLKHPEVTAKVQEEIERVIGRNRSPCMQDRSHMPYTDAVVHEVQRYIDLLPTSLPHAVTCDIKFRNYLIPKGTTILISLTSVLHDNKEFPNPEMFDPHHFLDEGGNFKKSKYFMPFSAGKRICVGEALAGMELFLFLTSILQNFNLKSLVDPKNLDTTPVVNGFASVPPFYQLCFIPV

Cytochrome P450 1A1 = target: T3, Cytochrome P450 1A1 (Homo sapiens, UniProt P04798); test: Mechanism based inhibition of human cytochrome P450 1A1 measured by 7-ethoxyresorufin O-deethylation (EROD)
T3 sequence (P04798 whole entry): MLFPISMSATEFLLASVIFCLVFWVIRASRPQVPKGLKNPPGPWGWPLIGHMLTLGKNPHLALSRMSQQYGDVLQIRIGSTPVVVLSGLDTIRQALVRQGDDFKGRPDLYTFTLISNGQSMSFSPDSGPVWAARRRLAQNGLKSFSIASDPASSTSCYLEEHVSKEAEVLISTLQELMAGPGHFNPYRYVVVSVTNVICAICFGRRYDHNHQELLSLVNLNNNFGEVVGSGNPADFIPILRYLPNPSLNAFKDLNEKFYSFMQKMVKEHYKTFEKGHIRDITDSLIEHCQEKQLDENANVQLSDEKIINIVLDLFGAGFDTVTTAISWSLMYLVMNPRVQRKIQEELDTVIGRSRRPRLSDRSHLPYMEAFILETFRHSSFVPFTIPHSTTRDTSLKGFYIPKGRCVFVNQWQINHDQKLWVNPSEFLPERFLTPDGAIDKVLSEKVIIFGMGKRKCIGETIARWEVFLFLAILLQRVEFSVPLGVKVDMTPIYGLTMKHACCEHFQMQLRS

Cytochrome P450 1A2 [2] = target: T1, Cytochrome P450 1A2; test: Mechanism based inhibition of human cytochrome P450 1A2 measured by 7-ethoxyresorufin O-deethylation (EROD)
Cytochrome P450 3A4 [3] = target: T4, Cytochrome P450 3A4 (Homo sapiens, UniProt P08684); test: Mechanism based inhibition of human cytochrome P450 3A4 measured by testosterone 6-beta hydroxylation
T4 sequence (P08684 whole entry): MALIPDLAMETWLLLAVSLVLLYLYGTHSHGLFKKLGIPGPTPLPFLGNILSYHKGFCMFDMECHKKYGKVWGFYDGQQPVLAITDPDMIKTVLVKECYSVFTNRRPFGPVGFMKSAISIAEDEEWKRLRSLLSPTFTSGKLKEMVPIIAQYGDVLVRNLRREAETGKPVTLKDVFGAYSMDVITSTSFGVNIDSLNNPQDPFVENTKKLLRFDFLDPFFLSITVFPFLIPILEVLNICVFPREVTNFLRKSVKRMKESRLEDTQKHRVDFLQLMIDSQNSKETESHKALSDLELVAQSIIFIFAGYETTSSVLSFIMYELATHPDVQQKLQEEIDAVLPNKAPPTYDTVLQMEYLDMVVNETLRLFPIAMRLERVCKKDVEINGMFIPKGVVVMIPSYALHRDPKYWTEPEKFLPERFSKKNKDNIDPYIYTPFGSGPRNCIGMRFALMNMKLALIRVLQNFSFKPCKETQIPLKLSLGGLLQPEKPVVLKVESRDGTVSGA

Cytochrome P450 1B1 = target: T5, Cytochrome P450 1B1 (Homo sapiens, UniProt Q16678); test: Mechanism based inhibition of human cytochrome P450 1B1 measured by 7-ethoxyresorufin O-deethylation (EROD)
T5 sequence (Q16678 whole entry): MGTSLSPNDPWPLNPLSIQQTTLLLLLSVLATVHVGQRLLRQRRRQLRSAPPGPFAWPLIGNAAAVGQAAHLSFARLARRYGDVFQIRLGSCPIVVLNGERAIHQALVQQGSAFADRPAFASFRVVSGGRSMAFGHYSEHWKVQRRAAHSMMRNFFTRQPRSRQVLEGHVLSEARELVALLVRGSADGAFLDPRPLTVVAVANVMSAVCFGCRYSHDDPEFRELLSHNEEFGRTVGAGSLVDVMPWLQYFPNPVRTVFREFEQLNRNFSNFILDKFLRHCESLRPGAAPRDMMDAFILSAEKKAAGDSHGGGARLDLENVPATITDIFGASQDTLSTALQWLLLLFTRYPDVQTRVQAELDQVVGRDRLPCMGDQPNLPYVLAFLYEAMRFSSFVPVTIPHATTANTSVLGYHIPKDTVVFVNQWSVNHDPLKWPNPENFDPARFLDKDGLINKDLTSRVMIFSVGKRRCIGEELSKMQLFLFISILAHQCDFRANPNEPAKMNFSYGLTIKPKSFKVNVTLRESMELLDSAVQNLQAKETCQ

CYP2B1 = target: T6, CYP2B1 (Rattus norvegicus, UniProt P00176); test: (§2) Mechanism based inhibition of rat cytochrome P450 CYP2B1 measured by 7-EFC O-deethylation activity; conditions: rat, probe 7-EFC (O-deethylation)
T6 sequence (P00176 whole entry): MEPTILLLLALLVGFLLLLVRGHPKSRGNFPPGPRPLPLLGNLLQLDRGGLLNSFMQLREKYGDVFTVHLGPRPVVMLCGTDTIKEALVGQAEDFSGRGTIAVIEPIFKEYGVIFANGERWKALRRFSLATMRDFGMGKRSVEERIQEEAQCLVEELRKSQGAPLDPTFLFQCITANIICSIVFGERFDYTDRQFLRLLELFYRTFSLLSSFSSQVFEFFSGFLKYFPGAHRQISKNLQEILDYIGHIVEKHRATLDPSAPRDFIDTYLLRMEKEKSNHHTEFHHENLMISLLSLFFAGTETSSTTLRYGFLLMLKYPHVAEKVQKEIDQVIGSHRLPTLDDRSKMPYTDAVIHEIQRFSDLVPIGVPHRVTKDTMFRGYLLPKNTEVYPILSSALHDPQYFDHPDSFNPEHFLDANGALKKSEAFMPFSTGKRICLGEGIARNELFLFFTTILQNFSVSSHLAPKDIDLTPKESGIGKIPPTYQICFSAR

Cytochrome P450 2B1 [4] = target: T7, Cytochrome P450 2B1 (Rattus norvegicus, UniProt P00176); test: as §2
T7 sequence (P00176 whole entry): T6 sequence (P00176 whole entry)

Cytochrome P450 2B1 [5] = target: T7, Cytochrome P450 2B1; test: Mechanism based inhibition of rat cytochrome P450 CYP2B1; conditions: rat
Cytochrome P450 3A4 [6] = target: T4, Cytochrome P450 3A4; test: Mechanism based inhibition of human cytochrome P450 3A4, partition ratio

Sequence of Cytochrome P450 3A5 (P20815 whole entry): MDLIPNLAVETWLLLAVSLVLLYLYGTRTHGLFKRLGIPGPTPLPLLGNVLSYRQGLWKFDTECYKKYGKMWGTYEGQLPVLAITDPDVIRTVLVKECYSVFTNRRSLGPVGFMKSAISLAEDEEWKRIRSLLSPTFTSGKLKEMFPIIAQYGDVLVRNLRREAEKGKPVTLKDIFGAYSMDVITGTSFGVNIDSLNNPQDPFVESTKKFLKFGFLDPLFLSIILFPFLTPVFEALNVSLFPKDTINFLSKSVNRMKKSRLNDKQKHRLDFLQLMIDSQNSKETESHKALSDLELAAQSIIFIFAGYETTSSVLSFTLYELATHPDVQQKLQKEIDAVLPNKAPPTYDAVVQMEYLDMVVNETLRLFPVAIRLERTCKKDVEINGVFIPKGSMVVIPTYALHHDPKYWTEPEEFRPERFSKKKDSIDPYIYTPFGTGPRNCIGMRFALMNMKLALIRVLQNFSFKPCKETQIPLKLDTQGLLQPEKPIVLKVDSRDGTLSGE

SMILES: CC(C)(C)NC(=O)[C@@H]1C[C@@H]2CCCC[C@@H]2CN1C[C@@H](O)[C@H](Cc1ccccc1)NC(=O)[C@H](CC(N)=O)NC(=O)c1ccc2ccccc2n1
- mechanism based inhibition (Cytochrome P450 3A5): Cytochrome P450 mechanistic inhibitor: PMID 15523003

SMILES: C[C@@H](c1cc2ccccc2s1)N(O)C(N)=O
- Ki (Cytochrome P450 1A2 [1]): 98.2 µM
- kinact (CYP1A2): 0.000617 s⁻¹

SMILES: C[C@H](c1cc2ccccc2s1)N(O)C(N)=O
- Ki (Cytochrome P450 1A2 [1]): 66 µM
- kinact (CYP1A2): 0.0002 s⁻¹

SMILES: CCOC(=O)C1=C(C)N=C(C)/C(=C(/O)OCC)C1CC (stereo not drawn)
- mechanism based inhibition (Cytochrome P450 2C9): Cytochrome P450 mechanistic inhibitor: PMID 9107543
- mechanism based inhibition (Cytochrome P450 1A1): Cytochrome P450 mechanistic inhibitor: PMID 9107543
- mechanism based inhibition (Cytochrome P450 1A2 [2]): Cytochrome P450 mechanistic inhibitor: PMID 9107543
- mechanism based inhibition (Cytochrome P450 3A4 [3]): Cytochrome P450 mechanistic inhibitor: PMID 9107543

SMILES: C#Cc1cc2ccc3cccc4ccc(c1)c2c34
- mechanism based inhibition (Cytochrome P450 1B1): Cytochrome P450 mechanistic inhibitor: PMID 9760279
- mechanism based inhibition (Cytochrome P450 1A1): Cytochrome P450 mechanistic inhibitor: PMID 9760279

SMILES: CC(C)(C)NC(=O)[C@@H]1CN(Cc2cccnc2)CCN1C[C@@H](O)C[C@@H](Cc1ccccc1)C(=O)N[C@H]1c2ccccc2C[C@H]1O.O
- mechanism based inhibition (Cytochrome P450 3A5): Cytochrome P450 mechanistic inhibitor: PMID 15523003

SMILES: CC(c1cc2ccccc2s1)N(O)C(N)=O (racemic) [ZILEUTON]
- Ki (Cytochrome P450 1A2 [1]): 117 µM
- kinact (CYP1A2): 0.000583 s⁻¹

SMILES: C#CCN(C)CCCOc1ccc(Cl)cc1Cl [CLORGILINE]
- kinact (CYP2B1): 0.00467 s⁻¹
- Ki (Cytochrome P450 2B1 [4]): 1500 nM

SMILES: CC(C)(OO)c1ccccc1 [CUMENE HYDROPEROXIDE]
- mechanism based inhibition (Cytochrome P450 2B1 [5]): Cytochrome P450 mechanistic inhibitor: PMID 8416964

SMILES: CC(C)Nc1cccnc1N1CCN(C(=O)c2cc3cc(NS(C)(=O)=O)ccc3[nH]2)CC1 [DELAVIRDINE]
- Partition ratio (Cytochrome P450 3A4 [6]): 41
